Data on six compounds can be found in US8487104B2, “KAT II inhibitors” (Pfizer Inc., priority 2010, dated 2013).

Where a name gives a salt, the structure may show the parent alone. Read-outs that look alike come from different tables or passages of the source.

Data set [1] deals with human hepatocytes. Kind of data set: Human Hepatocyte Assay (HHEP). Conditions: 1 μM test compound, 0.5 million viable cells/mL. It counts as in vitro ADME.
Data set [2] has as its target human KAT II (hKAT II) enzyme (Homo sapiens, UniProt Q8N5Z0). The data set can be described thus: Human KAT II Inhibition Spectra Assay. It counts as biochemical. Here is the method: Human KAT II Inhibition Spectra Assay Formation of kynurenic acid (KYNA) is indirectly assessed by a decrease in light absorbance at 370 nm (OD370) as the L-kynurenine (KYN) substrate is converted by the human KAT II (hKAT II) enzyme into KYNA. An inhibitor would therefore inhibit the decrease in OD370. The protocol was performed by placing the following reagents into a Costar 384 well black plate (30 μL total assay volume/well): • 10 μL of 3× concentrated compound; • 10 μL of 3× concentrated substrate mix (BGG (Sigma G-5009); 3 mM L-Kynurenine in 150 mM Tris Acetate (Sigma K3750); 3 mM α-ketoglutaric acid in 150 mM Tris Acetate (Sigma K2010); and 210 μM pyridoxal 5-phosphate (PLP) in 150 mM Tris Acetate (Sigma 9255)); and • 10 μL of 3× concentrated enzyme (15 nM enzyme in 150 mM Tris Acetate with 0.3% bovine serum). Plates were sealed and incubated at 37° C. for 15-20 h before reading OD370 on a SpectraMax Plus plate reader. IC50s were generated by comparing the efficacy of compounds across a concentration range to inhibit a reduction in the OD370 value relative to assay wells with DMSO added in place of concentrated compound. Biological data for the Examples may be found Tables 1 and 2.

The target of data set [3] is human KATII enzyme (Homo sapiens, UniProt Q8N5Z0). Kind of data set: KATII Kinetic Assay (kinact/KI determination). It counts as biochemical. Conditions: read-out: hKATII kinact/KI. Here is the method: The compounds of the present invention are irreversible inhibitors of KATII. Potency of irreversible inhibitors is best characterized by kinact/KI (See Copeland, R. A.; “Evaluation of Enzyme Inhibitors in Drug Discovery,” Wiley, 2005).
Sequence of human KATII enzyme (Q8N5Z0 30-425): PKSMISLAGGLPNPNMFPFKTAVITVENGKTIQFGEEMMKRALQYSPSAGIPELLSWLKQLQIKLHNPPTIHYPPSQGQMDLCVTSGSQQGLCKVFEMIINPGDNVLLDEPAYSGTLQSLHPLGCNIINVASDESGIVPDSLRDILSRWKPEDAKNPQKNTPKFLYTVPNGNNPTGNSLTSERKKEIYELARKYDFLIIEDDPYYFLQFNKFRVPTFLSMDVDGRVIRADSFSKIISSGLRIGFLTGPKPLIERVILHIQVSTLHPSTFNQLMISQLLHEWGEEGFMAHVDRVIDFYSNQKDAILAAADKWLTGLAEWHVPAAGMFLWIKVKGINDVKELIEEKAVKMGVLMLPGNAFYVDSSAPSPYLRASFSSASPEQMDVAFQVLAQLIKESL
Test compounds were dissolved in 100% DMSO and diluted to the required concentrations in 100% DMSO. An additional aqueous dilution was made so that the compound at 3× final concentration was 1.0% DMSO in the assay specific buffer. Compounds were tested at 11 concentrations. Final DMSO concentrations in the assay plate were equal to 0.33%.
KATII enzyme activity was followed by measuring the loss of absorbance of the L-KYN substrate at an absorbance wavelength of 370 nm. The KATII assays were run in a 384 well format at a final volume of 30 μL using 150 mM Tris Acetate buffer (pH7.0), 1 mM L-KYN,1 mM α-ketoglutaric acid, 70 μM PLP, 0.1% BGG and either 30 nM human KATII enzyme or 5 nM rat KATII enzyme KATII enzyme. Compound was diluted in 100% DMSO and spotted prior to the addition of the other reagents. Enzyme was always added last. Assay plates were sealed around the edges with tape and immediately read on a SpectraMax plate reader at an absorbance wavelength of 370 nm. The SpectraMax plate reader was set up to read every 5 min for 16 hours.
The following steps are taken to ensure consistent production of kinetic read data: • 1. A 10 μL aliquot of the compound dilutions (described above in compound preparation) was added to the assay plate by hand followed by a quick spin to ensure compound was collected at bottom of well. • 2. A 10 μL aliquot of substrate mix containing the L-KYN, a-ketoglutaric acid and PLP was then added to the assay plate via a Multidrop instrument. • 3. Finally, a 10 μL aliquot of a 3× concentration of enzyme stock soluton was added last to initiate the reaction via a Multidrop instrument. • 4. The microplate lid was placed onto the assay plate and taped to seal in humidity, and the assay plate was put into the SpectraMax reader. A quick vibration on the plate platform was done to ensure mixing, and the absorbance was read (wavelength of 370 nm) every 5 min over 16 h at room temperature. Determination of Potencies (kinact/Kl Values)
The direct substrate absorbance loss assay described above was performed for the determination of potencies (kinact/Kl values). The overall potency, kinact/K1 values, were determined using the general approach described by M. Mileni et al., Proc. Natl. Acad. Sci. USA 2008, 105 12820-12824 and K. Ahn et al. Chem. Biol. 2009, 16, 411-420. Reaction progress curves (decrease in A370 nm with time) were obtained in the presence of eleven concentrations of inhibitor with top dose at […]. A null inhibitor control is always included. Absorbance read data were collected for 16 hours at 5 minute intervals. […] Each progress curve was fit to a one phase exponential decay model (equation 1) to determine kobserved (kobs) values at each inhibitor concentration, where At is absorbance at time t, A0 is the absorbance at t=infinite, A1 is a total absorbance change (the absorbance difference between t=0 and t=infinite), and kobs is the first order rate constant for enzyme inactivation. […] When [I]<<K1, equation 2 is simplified to equation 3, where the kinact/Kl is calculated from the slope, kinact/[Kl(1+[S]/Km)], which is obtained from the kobs vs [I] linear regression fit. […]

Data set [4] can be described thus: Reactive Metabolite Assay. It counts as in vitro ADME. Here is the method:
[formula] Reactive Metabolite Assay Protocol Metabolite activity in Table 2 is measured using a reactive metabolite assay protocol as described in Reactive Metabolite assay protocol: See J. R. Soglia et al., J. Pharm. Biomed. Anal. 2004, 36, 105-116.

The nature of data set [5]: Pharmacokinetics Studies in Dog. It counts as in vivo. Also noted: AUC/dose: unit not given beside the values. Conditions: dogs; for AUC / C0 / clearance / half-life / Cmax: male, beagle, dog, plasma. Here is the method: Pharmacokinetics Studies in Dog Test substances (Examples 2-3) were administered by oral gavage or IV administration to groups of two dogs. The two male dogs were beagles obtained from Marshal Farms, weighing from about 9 to about 12 kg at start of treatment and ranging in age between approximately 4 to approximately 6 years. Blood samples were taken times of 0.25, 0.5, 1, 2, 4, 7, and 24 h after administration and submitted to analysis for the drug substance using an LC-MS-MS assay. Pharmacokinetic parameters derived from the plasma analytical data were determined using Watson 7.2.003.

Where [6] appears, read: OD370 readout, 37° C., 15-20 h incubation, read-out: hKATII IC50.
The mark [7] stands for this setting: IV administration, dose = 0.5 mg/kg.
Setting [8] is: oral administration, dose 5 mg/kg (Ex 3, 2), 2 mg/kg (Ex 5).

Sequence of human KAT II (hKAT II) enzyme (Q8N5Z0 30-425): as above

For orientation: IC50 means the concentration at which inhibition is half-maximal. Take `N#Cc1ccc2c(c1)N(O)C(=O)[C@@H](N)C2` [Example 1, (3S)-3-Amino-1-hydroxy-2-oxo-1,2,3,4-tetrahydroquinoline-7-carbonitrile, HCl Salt]: the “HHEP CLint, app” value in data set [1] is given as 24.8 μL/min/million. The IC50 in data set [2] (setting [6]) worked out at 19 nM. The kinact/KI in data set [3] was found to be 46200 M⁻¹ s⁻¹.
The term AUC denotes concentration integrated over time. What is called clearance is the rate of elimination divided by the concentration. The half-life is the time in which the quantity being followed falls by half. As usually defined, the Cmax is the maximum level reached in the sampled fluid or tissue. As for `COC[C@H](C)Oc1ccc2c(c1)N(O)C(=O)[C@@H](N)C2` [Example 2, (3S)-3-Amino-1-hydroxy-7-[(1S)-2-methoxy-1-methylethoxy]-3,4-dihydroquinolin-2(1H)-one, HCl Salt], the “HHEP CLint, app” value in data set [1] turned out to be 19.8 μL/min/million. In data set [2] (setting [6]), the IC50 was found to be 18 nM. The “Reactive Metabolite Formation” value in data set [4] is listed as “No”. For the same compound, the kinact/KI in data set [3] turned out to be 25100 M⁻¹ s⁻¹. In data set [5] (setting [7]), this compound came in with an AUC/dose of 370, an AUC of 185 ng·h/mL, a C0 of 352 ng/mL and a clearance of 44.9 mL/min/kg. The half-life in data set [5] (setting [7]) is 30 min. Besides, in data set [5] (setting [8]), the AUC/dose is 39, the Cmax/dose came out at 46, the AUC was determined as 195 ng·h/mL and the Cmax was determined as 229 ng/mL. In data set [5] (setting [8]), this compound gave a half-life of 137 min.
With `COCCOc1ccc2c(c1)N(O)C(=O)[C@@H](N)C2` [Example 3, (3S)-3-Amino-1-hydroxy-7-(2-methoxyethoxy)-3,4-dihydroquinolin-2(1H)-one, HCl Salt], the “HHEP CLint, app” value in data set [1] is 30.1 μL/min/million. Further, the IC50 in data set [2] (setting [6]) came out at 22 nM. For the same compound, the “Reactive Metabolite Formation” value in data set [4] is “No”. The kinact/KI in data set [3] (30 nM human KATII enzyme, room temperature) came to 22300 M⁻¹ s⁻¹. In addition, in data set [5] (setting [7]), the AUC/dose was determined as 388, the AUC was 194 ng·h/mL, the C0 was found to be 446 ng/mL and the clearance is 43.4 mL/min/kg. This compound had a half-life in data set [5] (setting [7]) of 54 min. In data set [5] (setting [8]), this compound came in with an AUC/dose of 31.2, a Cmax/dose of 39.6, an AUC of 156 ng·h/mL and a Cmax of 198 ng/mL. Moreover, the half-life in data set [5] (setting [8]) was 63 min.
With `N[C@H]1Cc2ccccc2N(O)C1=O` [Example 4, (3S)-3-Amino-1-hydroxy-3,4-dihydroquinolin-2(1H)-one], the “HHEP CLint, app” value in data set [1] is reported as 39.6 μL/min/million. Also, the IC50 in data set [2] (setting [6]) was 27 nM. Moreover, the kinact/KI in data set [3] was found to be 21500 M⁻¹ s⁻¹.
`CC(C)Oc1ccc2c(c1)N(O)C(=O)[C@@H](N)C2` [Example 5, (3S)-3-Amino-1-hydroxy-7-isopropoxy-3,4-dihydroquinolin-2(1H)-one, HCl Salt]: in data set [1], the “HHEP CLint, app” value was found to be 44.7 μL/min/million. In data set [2], the IC50 is 32 nM. Moreover, the “Reactive Metabolite Formation” value in data set [4] was “Yes”. Moreover, the kinact/KI in data set [3] was found to be 17100 M⁻¹ s⁻¹. Also, in data set [5] (setting [7]), the AUC/dose is listed as 436, the AUC amounted to 218 ng·h/mL, the C0 is 265 ng/mL and the clearance is 38.7 mL/min/kg. The half-life in data set [5] (setting [7]) is 36 min. Also, in data set [5] (setting [8]), the AUC/dose is 9.3, the Cmax/dose worked out at 9.8, the AUC came to 18.6 ng·h/mL and the concentration peaked (Cmax) at 19.6 ng/mL. This compound also showed a half-life in data set [5] (setting [8]) of 27.6 min.
For the compound `N#Cc1cccc2c1N(O)C(=O)C(N)C2` (stereo not shown) [Example 6, 3-Amino-1-hydroxy-2-oxo-1,2,3,4-tetrahydroquinoline-8-carbonitrile, HCl Salt], the IC50 in data set [2] (setting [6]) amounted to 30 nM.
